Data published in ChEMBL document CHEMBL3885881, “DrugMatrix”.

Species: Rattus norvegicus
Assay: DrugMatrix - Regimen: Daily Repeat
Format: toxicity, organism-based, Sprague-Dawley
Design: regimen Daily Repeat, gender Male, age 6-8 weeks
Settings: in vivo, po, route oral GAVAGE, […]; for ABSOLUTE BASOPHIL / ABSOLUTE EOSINOPHIL / ABSOLUTE LYMPHOCYTE / ABSOLUTE MONOCYTE / ABSOLUTE SEGMENTED NEUTROPHIL / BASOPHIL / EOSINOPHIL / ERYTHROCYTE COUNT / HEMATOCRIT / HEMOGLOBIN / LEUKOCYTE COUNT / LYMPHOCYTE / MEAN CORPUSCULAR HEMOGLOBIN / MEAN CORPUSCULAR HEMOGLOBIN CONCENTRATION / MEAN CORPUSCULAR VOLUME / MONOCYTE / NEUTROPHIL / NUCLEATED RED BLOOD CELLS / PLATELET COUNT: tissue Blood; for ALANINE AMINOTRANSFERASE / ALBUMIN / ALKALINE PHOSPHATASE / ASPARTATE AMINOTRANSFERASE / BLOOD UREA NITROGEN / CARBON DIOXIDE / CHLORIDE / CHOLESTEROL / CREATINE PHOSPHOKINASE / CREATININE / GLUCOSE / LACTATE DEHYDROGENASE / LIPASE / PHOSPHORUS / POTASSIUM / SODIUM / TOTAL BILIRUBIN / TOTAL PROTEIN / URIC ACID: tissue Plasma
[1] = 0 mg/kg, 72 h, dose level Control, time 3 day
[2] = 0 mg/kg, 120 h, dose level Control, time 5 day
[3] = 3 mg/kg, 72 h, dose level Low, time 3 day

Cc1cccc(Nc2ccncc2S(=O)(=O)NC(=O)NC(C)C)c1 [TORSEMIDE]
ABSOLUTE BASOPHIL [1]: 0 CELLS/uL
ABSOLUTE EOSINOPHIL [1]: 41.83 CELLS/uL
ABSOLUTE LYMPHOCYTE [1]: 8545.5 CELLS/uL
ABSOLUTE MONOCYTE [1]: 240 CELLS/uL
ABSOLUTE SEGMENTED NEUTROPHIL [1]: 906 CELLS/uL
BASOPHIL [1]: 0%
EOSINOPHIL [1]: 0.33%
ERYTHROCYTE COUNT [1]: 5.6 x10E6/uL
HEMATOCRIT [1]: 35.4%
HEMOGLOBIN [1]: 13.42 G/DL
LEUKOCYTE COUNT [1]: 9.73 x10E3/uL
LYMPHOCYTE [1]: 87.83%
MEAN CORPUSCULAR HEMOGLOBIN [1]: 23.98 pg
MEAN CORPUSCULAR HEMOGLOBIN CONCENTRATION [1]: 37.92 G/DL
MEAN CORPUSCULAR VOLUME [1]: 63.3 fL
MONOCYTE [1]: 2.5%
NEUTROPHIL [1]: 9.33%
NUCLEATED RED BLOOD CELLS [1]: 0 /100WBC
PLATELET COUNT [1]: 1032 x10E3/uL
ALANINE AMINOTRANSFERASE [1]: 72.83 u/L
ALBUMIN [1]: 4 G/DL
ALKALINE PHOSPHATASE [1]: 322.83 u/L
ASPARTATE AMINOTRANSFERASE [1]: 102.67 u/L
BLOOD UREA NITROGEN [1]: 12 mg/dL
CARBON DIOXIDE [1]: 34.33 mmol/L
CHLORIDE [1]: 97.67 MEQ/L
CHOLESTEROL [1]: 82.5 mg/dL
CREATINE PHOSPHOKINASE [1]: 410.33 u/L
CREATININE [1]: 0.18 mg/dL
GLUCOSE [1]: 164.5 mg/dL
LACTATE DEHYDROGENASE [1]: 119.5 u/L
LIPASE [1]: 11.83 u/L
PHOSPHORUS [1]: 9.52 mg/dL
POTASSIUM [1]: 5.56 MEQ/L
SODIUM [1]: 142.48 MEQ/L
TOTAL BILIRUBIN [1]: 0.18 mg/dL
TOTAL PROTEIN [1]: 5.77 G/DL
URIC ACID [1]: 0.48 mg/dL
ABSOLUTE BASOPHIL [2]: 0 CELLS/uL
ABSOLUTE EOSINOPHIL [2]: 0 CELLS/uL
ABSOLUTE LYMPHOCYTE [2]: 9065 CELLS/uL
ABSOLUTE MONOCYTE [2]: 341.33 CELLS/uL
ABSOLUTE SEGMENTED NEUTROPHIL [2]: 527 CELLS/uL
BASOPHIL [2]: 0%
EOSINOPHIL [2]: 0%
ERYTHROCYTE COUNT [2]: 5.25 x10E6/uL
HEMATOCRIT [2]: 34.08%
HEMOGLOBIN [2]: 13.5 G/DL
LEUKOCYTE COUNT [2]: 9.93 x10E3/uL
LYMPHOCYTE [2]: 91.17%
MEAN CORPUSCULAR HEMOGLOBIN [2]: 25.7 pg
MEAN CORPUSCULAR HEMOGLOBIN CONCENTRATION [2]: 39.62 G/DL
MEAN CORPUSCULAR VOLUME [2]: 64.93 fL
MONOCYTE [2]: 3.33%
NEUTROPHIL [2]: 5.5%
NUCLEATED RED BLOOD CELLS [2]: 0 /100WBC
PLATELET COUNT [2]: 1077.5 x10E3/uL
ALANINE AMINOTRANSFERASE [2]: 57.83 u/L
ALBUMIN [2]: 4.07 G/DL
ALKALINE PHOSPHATASE [2]: 319.17 u/L
ASPARTATE AMINOTRANSFERASE [2]: 83.33 u/L
BLOOD UREA NITROGEN [2]: 13.67 mg/dL
CARBON DIOXIDE [2]: 30.83 mmol/L
CHLORIDE [2]: 98.33 MEQ/L
CHOLESTEROL [2]: 64.83 mg/dL
CREATINE PHOSPHOKINASE [2]: 263.67 u/L
CREATININE [2]: 0.2 mg/dL
GLUCOSE [2]: 182.83 mg/dL
LACTATE DEHYDROGENASE [2]: 124 u/L
LIPASE [2]: 10.5 u/L
PHOSPHORUS [2]: 10 mg/dL
POTASSIUM [2]: 5.78 MEQ/L
SODIUM [2]: 142.48 MEQ/L
TOTAL BILIRUBIN [2]: 0.2 mg/dL
TOTAL PROTEIN [2]: 6 G/DL
URIC ACID [2]: 0.7 mg/dL
ABSOLUTE BASOPHIL [3]: 0 CELLS/uL
ABSOLUTE EOSINOPHIL [3]: 53.33 CELLS/uL
ABSOLUTE LYMPHOCYTE [3]: 14854 CELLS/uL
ABSOLUTE MONOCYTE [3]: 155 CELLS/uL
ABSOLUTE SEGMENTED NEUTROPHIL [3]: 1071 CELLS/uL
BASOPHIL [3]: 0%
EOSINOPHIL [3]: 0.33%
ERYTHROCYTE COUNT [3]: 5.34 x10E6/uL
HEMATOCRIT [3]: 33.73%
HEMOGLOBIN [3]: 13.07 G/DL
LEUKOCYTE COUNT [3]: 16.13 x10E3/uL
LYMPHOCYTE [3]: 92%
MEAN CORPUSCULAR HEMOGLOBIN [3]: 24.43 pg
MEAN CORPUSCULAR HEMOGLOBIN CONCENTRATION [3]: 38.7 G/DL
MEAN CORPUSCULAR VOLUME [3]: 63.07 fL
MONOCYTE [3]: 1%
NEUTROPHIL [3]: 6.67%
NUCLEATED RED BLOOD CELLS [3]: 0 /100WBC
PLATELET COUNT [3]: 969.67 x10E3/uL
ALANINE AMINOTRANSFERASE [3]: 67.33 u/L
ALBUMIN [3]: 3.93 G/DL
ALKALINE PHOSPHATASE [3]: 375.67 u/L
ASPARTATE AMINOTRANSFERASE [3]: 84.33 u/L
BLOOD UREA NITROGEN [3]: 11.33 mg/dL
CARBON DIOXIDE [3]: 26.67 mmol/L
CHLORIDE [3]: 101.33 MEQ/L
CHOLESTEROL [3]: 69.33 mg/dL
CREATINE PHOSPHOKINASE [3]: 255 u/L
CREATININE [3]: 0.29 mg/dL
GLUCOSE [3]: 162 mg/dL
LACTATE DEHYDROGENASE [3]: 201 u/L
LIPASE [3]: 11.67 u/L
PHOSPHORUS [3]: 10.23 mg/dL
POTASSIUM [3]: 5.87 MEQ/L
SODIUM [3]: 143.83 MEQ/L
TOTAL BILIRUBIN [3]: 0.2 mg/dL
TOTAL PROTEIN [3]: 5.6 G/DL
URIC ACID [3]: 0.93 mg/dL
